Results published in patent EP4707277A1, “NOVEL HETEROCYCLIC AMINE DERIVATIVES AND PHARMACEUTICAL COMPOSITION COMPRISING SAME” (Daewoong Pharmaceutical Co., Ltd., priority 2023, dated 2024).
Like-named read-outs stand apart in the source and are kept apart here.

Key:
BTK = molecular target: T1, BTK (Homo sapiens, UniProt Q06187); experiment: Inhibitory activity against BTK, ADP-Glo Kinase system (Promega); type: biochemical
T1 construct: purchased Signalchem B10-10H
Method: (§1) Inhibitory activities against BTK and ITK were measured for the compounds prepared in the above Examples as follows.
(§2) The inhibitory activities against BTK and ITK were evaluated using 'ADP-Glo™ Kinase system' (Promega Corporation). In the case of this evaluation method, activation was measured by quantifying the amount of ADP produced during the kinase reaction, which was utilized to measure the inhibitory activities against BTK and ITK.
(§3) Specifically, the inhibitory activities against BTK and ITK were measured using BTK kinase (Signalchem, B10-10H), ITK kinase (Signalchem, I13-11G-10), and ADP-Glo kinase assay kit (Promega, V9102). Recombinant purified human BTK and ITK were diluted with 1 x kinase reaction buffer (40 mM Tris-Cl, pH 7.5, 20 mM MgCl2, 0.1 mg/mL BSA, 2 mM MnCl2 and 50 uM DTT) and added to a 96 well plate (ITK: final concentration of 4 ng per reaction/BTK: final concentration of 10 ng per reaction). The compounds prepared in the previous Examples were treated so as to be finally a 1% DMSO aqueous solution, and a substrate cocktail containing ATP (1mM or Km ATP (BTK: 10 uM /ITK: 25uM)) and 0.2 ug/ul of Poly (Glu4,Tyr1) peptide (BTK and ITK final concentration) in the total 25 uL reactants was added to a 96-well plate to initiate enzymatic reaction. After incubation (30°C) for 1 hour, equivalent volume (25 uL per reaction) of ADP Glo was added, and incubated (30°C) for 40 minutes at room temperature. Then, a kinase detection reagent (45 uL per reaction) was added, and incubated (30°C) for 30 minutes at room temperature. The kinase activity was measured by chemiluminescence according to the instructions of ADP Glo kinase assay kit, and the inhibitory activity of the compounds according to the present disclosure was calculated. For the analysis of the results of each compound, Microsoft Excel was used, and IC50 values were calculated by GraphPad Prism software.

ITK = molecular target: T2, ITK (Homo sapiens, UniProt Q08881); experiment: Inhibitory activity against ITK, ADP-Glo Kinase system (Promega); type: biochemical
T2 construct: purchased Signalchem I13-11G-10
T2 sequence (Q08881 1-620): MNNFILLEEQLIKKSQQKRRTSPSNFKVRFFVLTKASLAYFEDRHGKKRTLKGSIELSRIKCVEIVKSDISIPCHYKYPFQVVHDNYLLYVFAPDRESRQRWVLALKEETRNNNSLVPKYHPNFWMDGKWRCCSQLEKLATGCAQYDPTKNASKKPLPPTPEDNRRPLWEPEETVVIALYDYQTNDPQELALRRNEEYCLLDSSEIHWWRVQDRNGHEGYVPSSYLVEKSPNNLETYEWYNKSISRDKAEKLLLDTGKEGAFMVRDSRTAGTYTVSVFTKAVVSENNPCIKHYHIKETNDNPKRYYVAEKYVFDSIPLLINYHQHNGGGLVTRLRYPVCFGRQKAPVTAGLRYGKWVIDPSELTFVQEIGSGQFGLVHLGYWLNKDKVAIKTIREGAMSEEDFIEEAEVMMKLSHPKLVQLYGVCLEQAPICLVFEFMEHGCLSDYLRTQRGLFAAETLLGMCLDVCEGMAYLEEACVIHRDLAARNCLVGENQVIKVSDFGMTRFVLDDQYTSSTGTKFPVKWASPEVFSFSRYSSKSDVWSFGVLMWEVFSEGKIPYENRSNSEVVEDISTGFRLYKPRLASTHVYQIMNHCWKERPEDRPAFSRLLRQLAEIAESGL
Method: as §1, §2, §3

[1] = 1mM ATP, read-out: BTK IC50(nM) 1mM ATP
[2] = 1mM ATP, read-out: ITK IC50(nM) 1mM ATP
[3] = Km ATP (BTK: 10 uM), read-out: BTK IC50(nM) Km ATP
[4] = Km ATP (ITK: 25uM), read-out: ITK IC50(nM) Km ATP

T1 sequence (Q06187 whole entry): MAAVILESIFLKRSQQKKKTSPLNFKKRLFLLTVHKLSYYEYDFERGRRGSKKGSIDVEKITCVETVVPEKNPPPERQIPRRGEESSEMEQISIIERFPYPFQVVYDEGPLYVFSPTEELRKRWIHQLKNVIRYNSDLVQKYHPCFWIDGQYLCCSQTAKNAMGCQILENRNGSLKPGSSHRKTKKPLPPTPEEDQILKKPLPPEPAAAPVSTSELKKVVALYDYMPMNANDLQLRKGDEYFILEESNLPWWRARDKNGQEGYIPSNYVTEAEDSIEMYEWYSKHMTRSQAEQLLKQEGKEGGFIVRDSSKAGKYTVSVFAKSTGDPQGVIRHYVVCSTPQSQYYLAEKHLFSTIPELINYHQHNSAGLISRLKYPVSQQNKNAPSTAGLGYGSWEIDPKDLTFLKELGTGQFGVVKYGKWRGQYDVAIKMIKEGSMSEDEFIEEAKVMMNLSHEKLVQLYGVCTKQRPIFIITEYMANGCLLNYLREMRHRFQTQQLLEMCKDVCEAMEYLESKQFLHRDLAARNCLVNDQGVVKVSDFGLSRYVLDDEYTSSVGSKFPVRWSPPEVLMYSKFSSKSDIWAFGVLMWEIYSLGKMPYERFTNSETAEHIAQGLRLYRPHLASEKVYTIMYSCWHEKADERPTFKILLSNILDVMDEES

IC50 (BTK; [1]) [nM]	IC50 (ITK; [2]) [nM]	IC50 (BTK; [3]) [nM]	IC50 (ITK; [4]) [nM]	SMILES
≤ 20	≤ 20	–	–	C=CC(=O)N1C2C=C(c3nc(Nc4ncc(C)s4)cc4c3ccn4CC3CC3)CC1CC2 (stereo not drawn) [Example 39, 1-(3-(1-(cyclopropylmethyl)-6-((5-methylthiazol-2-yl)amino)-1H-pyrrolo[3,2-c]pyridin-4-yl)-8-azabicyclo[3.2.1]oct-2-en-8-yl)prop-2-en-1-one]
≤ 20	≤ 20	–	–	C=CC(=O)N1C[C@@H](Oc2nc(Nc3ncc(C)s3)cc3c2ccn3CC2CC2)C[C@H]1C [Example 98, 1-((2R,4S)-4-((1-(cyclopropylmethyl)-6-((5-methylthiazol-2-yl)amino)-1H-pyrrolo[3,2-c]pyridin-4-yl)oxy)-2-methylpyrrolidin-1-yl)prop-2-en-1-one]
≤ 20	≤ 20	–	–	C=CC(=O)N1C[C@@H](F)[C@H](Oc2nc(Nc3ncc(C)s3)cc3c2ccn3CC)C1 [Example 154, 1-((3R,4R)-3-((1-ethyl-6-((5-methylthiazol-2-yl)amino)-1H-pyrrolo[3,2-c]pyridin-4-yl)oxy)-4-fluoropyrrolidin-1-yl)prop-2-en-1-one]
≤ 20	≤ 20	–	–	C=CC(=O)N1CC(Oc2nc(Nc3ncc(C)s3)cc3c2ccn3CC2CC2)C1 [Example 145, 1-(3-((1-(cyclopropylmethyl)-6-((5-methylthiazol-2-yl)amino)-1H-pyrrolo[3,2-c]pyridin-4-yl)oxy)azetidin-1-yl)prop-2-en-1-one]
≤ 20	20 to 100	–	–	C=CC(=O)N1CCC[C@H](Oc2nc(Nc3ncc(C)s3)cc3c2ccn3CC(C)CC)C1 (stereo partly drawn) [Example 172, 1-((3S)-3-((1-(2-methylbutyl)-6-((5-methylthiazol-2-yl)amino)-1H-pyrrolo[3,2-c]pyridin-4-yl)oxy)piperidin-1-yl)prop-2-en-1-one]
≤ 20	≤ 20	–	–	C=CC(=O)N1CC[C@H](Oc2nc(Nc3ncc(C)s3)cc3c2ccn3CC(F)(F)F)C1 [Example 205, (S)-1-(3-((6-((5-methylthiazol-2-yl)amino)-1-(2,2,2-trifluoroethyl)-1H-pyrrolo[3,2-c]pyridin-4-yl)oxy)pyrrolidin-1-yl)prop-2-en-1-one]
≤ 20	20 to 100	–	–	C=CC(=O)N1CCC[C@H]1COc1nc(Nc2ncc(C)s2)cc2c1ccn2CC1CCCC1 [Example 220, (S)-1-(2-(((1-(cyclopentylmethyl)-6-((5-methylthiazol-2-yl)amino)-1H-pyrrolo[3,2-c]pyridin-4-yl)oxy)methyl)pyrrolidin-1-yl)prop-2-en-1-one]
100 to 500	100 to 500	–	–	C=CC(=O)N1CCC[C@H](Oc2nc(Nc3ncc(C)s3)cc3c2ccn3CCC)C1 [Example 160, (S)-1-(3-((6-((5-methylthiazol-2-yl)amino)-1-propyl-1H-pyrrolo[3,2-c]pyridin-4-yl)oxy)piperidin-1-yl)prop-2-en-1-one]
–	–	≤ 20	20 to 100	C=CC(=O)N1CC=C(c2nc(Nc3ncc(C)s3)cc3c2ccn3CC2CCCC2)CC1 [Example 10, 1-(4-(1-(cyclopentylmethyl)-6-((5-methylthiazol-2-yl)amino)-1H-pyrrolo[3,2-c]pyridin-4-yl)-3,6-dihydropyridin-1(2H)-yl)prop-2-en-1-one]
> 500	> 500	–	–	C=CC(=O)N1CC[C@@H](Oc2nc(Nc3ncc(C)s3)cc3c2ccn3CC2CC2)C1 [Example 144, (R)-1-(3-((1-(cyclopropylmethyl)-6-((5-methylthiazol-2-yl)amino)-1H-pyrrolo[3,2-c]pyridin-4-yl)oxy)pyrrolidin-1-yl)prop-2-en-1-one]
20 to 100	100 to 500	–	–	C=CC(=O)N1C[C@@H](Oc2nc(Nc3ncc(C)s3)cc3c2ccn3C2CCCC2)C[C@@H]1C [Example 164, 1-((2S,4S)-4-((1-cyclopentyl-6-((5-methylthiazol-2-yl)amino)-1H-pyrrolo[3,2-c]pyridin-4-yl)oxy)-2-methylpyrrolidin-1-yl)prop-2-en-1-one]
≤ 20	≤ 20	–	–	C=CC(=O)N1CC[C@H](Oc2nc(Nc3ncc(C)s3)cc3c2ccn3CC(C)C)C1 [Example 81, (S)-1-(3-((1-isobutyl-6-((5-methylthiazol-2-yl)amino)-1H-pyrrolo[3,2-c]pyridin-4-yl)oxy)pyrrolidin-1-yl)prop-2-en-1-one]

The remaining lines, values behind:

SMILES	IC50 (BTK; [1]) [nM]	IC50 (ITK; [2]) [nM]	IC50 (BTK; [3]) [nM]	IC50 (ITK; [4]) [nM]
C=CC(=O)N1C[C@@H](F)[C@H](Oc2nc(Nc3ncc(C)s3)cc3c2ccn3[C@@H](C)CC)C1 [Example 113, 1-((3R,4R)-3-((1-((S)-sec-butyl)-6-((5-methylthiazol-2-yl)amino)-1H-pyrrolo[3,2-c]pyridin-4-yl)oxy)-4-fluoropyrrolidin-1-yl)prop-2-en-1-one]	≤ 20	≤ 20	–	–
C=CS(=O)(=O)N1C[C@H](F)[C@H](Oc2nc(Nc3ncc(C)s3)cc3c2ccn3CC(C)C)C1 [Example 228, N-(4-(((3R,4S)-4-fluoro-1-(vinylsulfonyl)pyrrolidin-3-yl)oxy)-1-isobutyl-1H-pyrrolo[3,2-c]pyridin-6-yl)-5-methylthiazol-2-amine]	≤ 20	≤ 20	–	–
C=CC(=O)Nc1ccc(F)c(-c2nc(Nc3ncc(C)s3)cc3c2ccn3[C@@H](C)CC)c1 [Example 68, (S)-N-(3-(1-(sec-butyl)-6-((5-methylthiazol-2-yl)amino)-1H-pyrrolo[3,2-c]pyridin-4-yl)-4-fluorophenyl)acrylamide]	≤ 20	20 to 100	–	–
C=CC(=O)N1CC[C@H](Oc2nc(Nc3cccn(C)c3=O)cc3c2ccn3C(C)C)C1 [Example 198, (S)-3-((4-((1-acryloylpyrrolidin-3-yl)oxy)-1-isopropyl-1H-pyrrolo[3,2-c]pyridin-6-yl)amino)-1-methylpyridin-2(1H)-one]	> 500	> 500	–	–
C=CC(=O)N1C[C@H](F)[C@H](Oc2nc(Nc3cc(C)[nH]n3)cc3c2ccn3CC(C)C)C1 [Example 196, 1-((3S,4R)-3-fluoro-4-((1-isobutyl-6-((5-methyl-1H-pyrazol-3-yl)amino)-1H-pyrrolo[3,2-c]pyridin-4-yl)oxy)pyrrolidin-1-yl)prop-2-en-1-one]	20 to 100	20 to 100	–	–
C=CC(=O)N1C2C=C(c3nc(Nc4ncc(C)s4)cc4c3ccn4C(C)C)CC1CCC2 (stereo not drawn) [Example 37, 1-(3-(1-isopropyl-6-((5-methylthiazol-2-yl)amino)-1H-pyrrolo[3,2-c]pyridin-4-yl)-9-azabicyclo[3.3.1]non-2-en-9-yl)prop-2-en-1-one]	≤ 20	≤ 20	–	–
C=CC(=O)N1CC[C@H](Oc2nc(Nc3ncc(C)s3)cc3c2ccn3Cc2ccccn2)C1 [Example 117, (S)-1-(3-((6-((5-methylthiazol-2-yl)amino)-1-(pyridin-2-ylmethyl)-1H-pyrrolo[3,2-c]pyridin-4-yl)oxy)pyrrolidin-1-yl)prop-2-en-1-one]	–	–	≤ 20	≤ 20
C=CC(=O)N1CC(F)(F)C[C@@H]1COc1nc(Nc2ncc(C)s2)cc2c1ccn2C(C)C [Example 93, (R)-1-(4,4-difluoro-2-(((1-isopropyl-6-((5-methylthiazol-2-yl)amino)-1H-pyrrolo[3,2-c]pyridin-4-yl)oxy)methyl)pyrrolidin-1-yl)prop-2-en-1-one]	≤ 20	≤ 20	–	–
C=CC(=O)N1C[C@H](F)[C@H](Oc2nc(Nc3ncc(C)s3)cc3c2ccn3[C@@H](C)CC)C1 [Example 112, 1-((3R,4S)-3-((1-((S)-sec-butyl)-6-((5-methylthiazol-2-yl)amino)-1H-pyrrolo[3,2-c]pyridin-4-yl)oxy)-4-fluoropyrrolidin-1-yl)prop-2-en-1-one]	≤ 20	≤ 20	–	–
